This note sets out measurements from ChEMBL document CHEMBL4251595, “Green approach for the synthesis of thiophenyl pyrazoles and isoxazoles by adopting 1,3-dipolar cycloaddition methodology and their antimicrobial activity” (2018).

Converted amounts (≈) assume the structure as drawn. The source made the active and inactive calls. Some results are limits rather than exact numbers.

Common to all, as to format: functional
The subject of test [1] is Aspergillus niger. As to the kind of experiment: Fungicidal activity against Aspergillus niger incubated for 48 hrs followed by replating on PDA and incubated for 48 hrs by broth dilution test. On the technique in general: In broth dilution the organism is exposed to a series of concentrations in liquid medium.
Test [2] concerns Bacillus subtilis. As to the kind of experiment: Antimicrobial activity against Bacillus subtilis assessed as zone of inhibition at 100 ug/well after 24 hrs by agar well diffusion method. As to conditions: read-out: DIZ.
For test [3], the system named is Pseudomonas aeruginosa. Nature of the test: Bactericidal activity against Pseudomonas aeruginosa incubated for 24 hrs followed by replating on sterile nutrient broth and incubated for 24 hrs by broth dilution test.
The test system of test [4] is Staphylococcus aureus. As to the kind of experiment: Bactericidal activity against Staphylococcus aureus incubated for 24 hrs followed by replating on sterile nutrient broth and incubated for 24 hrs by broth dilution test.
The subject of test [5] is Penicillium chrysogenum. Nature of the test: Antifungal activity against Penicillium chrysogenum assessed as zone of inhibition at 75 ug/well after 48 hrs by agar well diffusion method. As to conditions: read-out: DIZ. In general terms: Agar diffusion results depend on both activity and mobility in agar.
Test [6] has as its system Klebsiella pneumoniae. As to the kind of experiment: Antimicrobial activity against Klebsiella pneumoniae after 24 hrs by broth dilution test.
The subject of test [7] is Klebsiella pneumoniae. As to the kind of experiment: Bactericidal activity against Klebsiella pneumoniae incubated for 24 hrs followed by replating on sterile nutrient broth and incubated for 24 hrs by broth dilution test.
For test [8], the system named is Klebsiella pneumoniae. Nature of the test: Antimicrobial activity against Klebsiella pneumoniae assessed as zone of inhibition at 100 ug/well after 24 hrs by agar well diffusion method. As to conditions: read-out: DIZ.
Test [9] has as its system Pseudomonas aeruginosa. Nature of the test: Antimicrobial activity against Pseudomonas aeruginosa assessed as zone of inhibition at 75 ug/well after 24 hrs by agar well diffusion method. The following applies: read-out: DIZ.
For test [10], the system named is Staphylococcus aureus. As to the kind of experiment: Antimicrobial activity against Staphylococcus aureus assessed as zone of inhibition at 50 ug/well after 24 hrs by agar well diffusion method. The following applies: read-out: DIZ.
In test [11] the test system is Klebsiella pneumoniae. Nature of the test: Antimicrobial activity against Klebsiella pneumoniae assessed as zone of inhibition at 75 ug/well after 24 hrs by agar well diffusion method. The following applies: read-out: DIZ.
Test [12] has as its system Aspergillus niger. As to the kind of experiment: Antifungal activity against Aspergillus niger assessed as zone of inhibition at 100 ug/well after 48 hrs by agar well diffusion method. As to conditions: read-out: DIZ.
For test [13], the system named is Bacillus subtilis. As to the kind of experiment: Bactericidal activity against Bacillus subtilis incubated for 24 hrs followed by replating on sterile nutrient broth and incubated for 24 hrs by broth dilution test.
Test [14] has as its system Penicillium chrysogenum. Nature of the test: Antifungal activity against Penicillium chrysogenum after 48 hrs by broth dilution test.
The test system of test [15] is Penicillium chrysogenum. Nature of the test: Fungicidal activity against Penicillium chrysogenum incubated for 48 hrs followed by replating on PDA and incubated for 48 hrs by broth dilution test.
Test [16] concerns Staphylococcus aureus. Nature of the test: Antimicrobial activity against Staphylococcus aureus after 24 hrs by broth dilution test.
In test [17] the test system is Aspergillus niger. Nature of the test: Antifungal activity against Aspergillus niger assessed as zone of inhibition at 50 ug/well after 48 hrs by agar well diffusion method. The following applies: read-out: DIZ.
For test [18], the system named is Bacillus subtilis. Nature of the test: Antimicrobial activity against Bacillus subtilis assessed as zone of inhibition at 75 ug/well after 24 hrs by agar well diffusion method. As to conditions: read-out: DIZ.
In test [19] the test system is Bacillus subtilis. Nature of the test: Antimicrobial activity against Bacillus subtilis after 24 hrs by broth dilution test.
The subject of test [20] is Klebsiella pneumoniae. Nature of the test: Antimicrobial activity against Klebsiella pneumoniae assessed as zone of inhibition at 50 ug/well after 24 hrs by agar well diffusion method. The following applies: read-out: DIZ.
The subject of test [21] is Penicillium chrysogenum. As to the kind of experiment: Antifungal activity against Penicillium chrysogenum assessed as zone of inhibition at 50 ug/well after 48 hrs by agar well diffusion method. The following applies: for zone of inhibition at 50 µg/disc: read-out: DIZ.
The test system of test [22] is Bacillus subtilis. Nature of the test: Antimicrobial activity against Bacillus subtilis assessed as zone of inhibition at 50 ug/well after 24 hrs by agar well diffusion method. The following applies: read-out: DIZ.
Test [23] deals with Staphylococcus aureus. Nature of the test: Antimicrobial activity against Staphylococcus aureus assessed as zone of inhibition at 75 ug/well after 24 hrs by agar well diffusion method. As to conditions: read-out: DIZ.
The test system of test [24] is Aspergillus niger. As to the kind of experiment: Antifungal activity against Aspergillus niger after 48 hrs by broth dilution test.
For test [25], the system named is Pseudomonas aeruginosa. Nature of the test: Antimicrobial activity against Pseudomonas aeruginosa after 24 hrs by broth dilution test.
The test system of test [26] is Aspergillus niger. Nature of the test: Antifungal activity against Aspergillus niger assessed as zone of inhibition at 75 ug/well after 48 hrs by agar well diffusion method. As to conditions: read-out: DIZ.
Test [27] has as its system Staphylococcus aureus. Nature of the test: Antimicrobial activity against Staphylococcus aureus assessed as zone of inhibition at 100 ug/well after 24 hrs by agar well diffusion method. As to conditions: read-out: DIZ.
The subject of test [28] is Pseudomonas aeruginosa. Nature of the test: Antimicrobial activity against Pseudomonas aeruginosa assessed as zone of inhibition at 50 ug/well after 24 hrs by agar well diffusion method. As to conditions: read-out: DIZ.
For test [29], the system named is Penicillium chrysogenum. As to the kind of experiment: Antifungal activity against Penicillium chrysogenum assessed as zone of inhibition at 100 ug/well after 48 hrs by agar well diffusion method. As to conditions: read-out: DIZ.
The test system of test [30] is Pseudomonas aeruginosa. Nature of the test: Antimicrobial activity against Pseudomonas aeruginosa assessed as zone of inhibition at 100 ug/well after 24 hrs by agar well diffusion method. The following applies: read-out: DIZ.

Regarding `O=C(NS(=O)(=O)c1c(-c2ccccc2)nn(-c2ccccc2)c1-c1ccc([N+](=O)[O-])cc1)c1cccs1`, the MFC was 100 µg/mL (≈ 188 µM) in test [1] and over 200 µg/mL in [15]. The zone of inhibition at 100 µg/disc in test [2] was found to be 40 mm; in test [8], 34 mm; in [12], 31 mm; in test [27] it was 27 mm; in test [29] it was 27 mm; in test [30] it was 24 mm. The MBC was determined as 100 µg/mL (≈ 188 µM) in [3], 200 µg/mL (≈ 377 µM) in test [4], 100 µg/mL (≈ 188 µM) in test [7] and 12.5 µg/mL (≈ 23.6 µM) in [13]. Further, the zone of inhibition at 75 µg/disc came to 24 mm in test [5]; 21 mm in [9]; 32 mm in test [11]; 36 mm in test [18]; 26 mm in [23]; 28 mm in [26]. Moreover, the MIC in test [6] was 25 µg/mL (≈ 47.1 µM); in [14], 100 µg/mL (≈ 188 µM); in test [16], 50 µg/mL (≈ 94.2 µM); in [19] it was 6.25 µg/mL (≈ 11.8 µM); in test [24] it was 25 µg/mL (≈ 47.1 µM); in test [25] it was 25 µg/mL (≈ 47.1 µM). Also, the zone of inhibition at 50 µg/disc came out at 23 mm in [10]; 25 mm in test [17]; 29 mm in [20]; 22 mm in test [21]; 33 mm in test [22]; 20 mm in test [28].

In the case of `O=C(NS(=O)(=O)c1c(-c2ccccc2)noc1-c1ccc([N+](=O)[O-])cc1)c1cccs1`, the MFC was 12.5 µg/mL (≈ 27.4 µM) in test [1] and 200 µg/mL (≈ 439 µM) in [15]. The zone of inhibition at 100 µg/disc in test [2] is 42 mm; in test [8] it was 36 mm; in test [12], 38 mm; in [27], 30 mm; in test [29] it was 30 mm; in test [30], 26 mm. Moreover, the MBC came to 50 µg/mL (≈ 110 µM) in test [3], 200 µg/mL (≈ 439 µM) in [4], 100 µg/mL (≈ 220 µM) in test [7] and 12.5 µg/mL (≈ 27.4 µM) in [13]. The zone of inhibition at 75 µg/disc in [5] is 28 mm; in test [9] it was 23 mm; in [11] it was 34 mm; in test [18] it was 38 mm; in test [23] it was 28 mm; in test [26], 35 mm. Further, the MIC in test [6] amounted to 25 µg/mL (≈ 54.9 µM); in test [14], 50 µg/mL (≈ 110 µM); in [16] it was 50 µg/mL (≈ 110 µM); in test [19], 6.25 µg/mL (≈ 13.7 µM); in test [24] it was 6.25 µg/mL (≈ 13.7 µM); in [25] it was 12.5 µg/mL (≈ 27.4 µM). The zone of inhibition at 50 µg/disc in [10] amounted to 25 mm; in test [17], 33 mm; in test [20], 31 mm; in [21] it was 25 mm; in test [22], 34 mm; in test [28], 21 mm.

Consider `CC(=O)N1CCN(c2ccc(OCC3COC(Cn4ccnc4)(c4ccc(Cl)cc4Cl)O3)cc2)CC1` (stereo not drawn) [KETOCONAZOLE], for which the zone of inhibition at 75 µg/disc in [5] was 36 mm; in [26], 33 mm. Moreover, the zone of inhibition at 100 µg/disc in test [12] is 36 mm; in test [29] it was 38 mm. Moreover, the MIC is 12.5 µg/mL (≈ 23.5 µM) in test [14] and 6.25 µg/mL (≈ 11.8 µM) in [24]. Further, the figures for the zone of inhibition at 50 µg/disc in [17] and in test [21] were 31 mm and 35 mm, respectively.

In the case of `O=C(NS(=O)(=O)c1c(-c2ccccc2)nn(-c2ccccc2)c1-c1ccccc1)c1cccs1`, the zone of inhibition at 100 µg/disc in test [2] was determined as 26 mm; in test [8], 23 mm; in [12], 20 mm; in test [27], 20 mm; in [29], 16 mm; in test [30], 12 mm. Also, the zone of inhibition at 75 µg/disc in test [5] was 14 mm; in test [9], 10 mm; in test [11] it was 20 mm; in test [18] it was 23 mm; in test [23], 18 mm; in [26], 16 mm. Also, the zone of inhibition at 50 µg/disc amounted to 15 mm in [10]; 15 mm in [17]; 18 mm in test [20]; 12 mm in test [21]; 22 mm in [22]; 9 mm in test [28].

For `O=C(N[C@H](CO)[C@H](O)c1ccc([N+](=O)[O-])cc1)C(Cl)Cl` [CHLORAMPHENICOL], the zone of inhibition at 100 µg/disc amounted to 38 mm in test [2], 42 mm in test [8], 35 mm in test [27] and 30 mm in [30]. Further, the MIC was 6.25 µg/mL (≈ 19.3 µM) in test [6], 12.5 µg/mL (≈ 38.7 µM) in test [16], 6.25 µg/mL (≈ 19.3 µM) in test [19] and 6.25 µg/mL (≈ 19.3 µM) in test [25]. For the same molecule, the zone of inhibition at 75 µg/disc turned out to be 27 mm in [9], 40 mm in test [11], 34 mm in test [18] and 33 mm in [23]. Besides, the zone of inhibition at 50 µg/disc is 30 mm in [10], 38 mm in test [20], 32 mm in test [22] and 25 mm in test [28].

On to `O=C(NS(=O)(=O)c1c(-c2ccccc2)nn(-c2ccccc2)c1-c1ccccc1)c1ccc(Cl)s1`, for which the zone of inhibition at 100 µg/disc turned out to be 32 mm in [2]; 27 mm in [8]; 25 mm in [12]; 24 mm in test [27]; 17 mm in [29]; 19 mm in test [30]. Besides, the zone of inhibition at 75 µg/disc came to 15 mm in test [5]; 16 mm in test [9]; 25 mm in test [11]; 28 mm in test [18]; 21 mm in test [23]; 21 mm in test [26]. The zone of inhibition at 50 µg/disc in test [10] was found to be 19 mm; in test [17], 18 mm; in test [20], 23 mm; in test [21], 13 mm; in test [22], 25 mm; in test [28], 14 mm.

On to `O=C(NS(=O)(=O)/C=C/c1ccccc1)c1cccs1`, for which the zone of inhibition at 100 µg/disc was determined as 23 mm in test [2]; 19 mm in test [8]; 15 mm in test [12]; 17 mm in [27]; 11 mm in test [29]; 10 mm in test [30]. In addition, the zone of inhibition at 75 µg/disc came to 8 mm in [5]; 9 mm in [9]; 18 mm in test [11]; 21 mm in test [18]; 16 mm in test [23]; 13 mm in test [26]. The zone of inhibition at 50 µg/disc in test [10] stood at 12 mm; in test [17], 10 mm; in test [20], 15 mm; in [22] it was 18 mm; in test [28], 7 mm. Also, the “diameter of the inhibition zone (DIZ)” value in [21] is “inactive”.

Broadly, the MFC is the smallest concentration meeting the test's criterion for killing the fungus. High values mean weaker fungicidal potency, low ones greater fungicidal potency. In general, MBC refers to the smallest concentration meeting the test's criterion for killing. A high value points to weaker bactericidal potency. What is called MIC is the lowest concentration that inhibits growth of the organism. A lower MIC goes with a more susceptible organism.
